# Results reported in patent US10758518B2, “Compounds and compositions for treating hematological disorders” (Curis, Inc., priority 2017, dated 2020).
# Columns and labels:
# [1] = test system: ABC-DLBCL cell line OCI-Ly10 (MYD88-L265P, CD79A ITAM); assay: In vivo tumor growth inhibition in ABC-DLBCL tumor model (OCI-Ly10 xenograft); conditions: OCI-Ly10 in female SCID Beige mice; 21 continuous days qd po; Compound A 50 mg/kg, venetoclax 75 mg/kg
# Experimental: Female SCID Beige mice were implanted with the ABC-DLBCL cell line OCI-Ly10, which harbors TLR (MYD88-L265P) and BCR (CD79A ITAM) pathway activating mutations. The mice were treated with Compound A (50 mg/kg, qd, po, suspension in 0.5% Tween 20 and 0.25% hydroxyethyl cellulose), venetoclax (75 mg/kg, qd, po, solution in 60% phosal 50PG, 30% PEG 400, and 10% ethanol) or the combination for 21 continuous days.
# After the 21-day drug treatment period, the mice were given a 19-day dosing holiday. […] After the 19-day drug holiday, dosing of the respective drug treatments was reinstated to each cohort.
# [2] = test system: SU-DHL-2 cells (MYD88-S222R); assay: In vivo tumor growth inhibition in ABC-DLBCL tumor model (SU-DHL-2 xenograft); conditions: SU-DHL-2 in female SCID Beige mice; 27 continuous days qd po; Compound A/CA-4948 100 mg/kg, venetoclax 75 mg/kg
# Experimental: Female SCID Beige mice were implanted with SU-DHL-2 cells which harbor MYD88-S222R pathway activating mutations. The mice were treated with Compound A (100 mg/kg, qd, po, suspension in 0.5% Tween 20 and 0.25% hydroxyethyl cellulose), venetoclax (75 mg/kg, qd, po, solution in 60% phosal 50PG, 30% PEG 400, and 10% ethanol) or the combination for 27 continuous days.
# All in life data acquisition, including body weight, tumor length, tumor diameter, tumor ulceration, clinical signs and animal mortality was collected in Study Director. Tumor ulceration was scored on a 6 level system with severity of 4 or higher requiring attention. At the end of the study (24 hours after the last dose), all surviving animals were examined externally for possible clinical abnormalities or adverse clinical signs, weighed and tumor measurements were taken for the last time.
# OCI-LY3 = assay: ABC-DLBCL MYD88-L265P xenograft tumor model, OCI-LY3; assay type: in vivo
# OCI-LY10 = assay: ABC-DLBCL MYD88-L265P xenograft tumor model, OCI-LY10 (dose response); assay type: in vivo
# ABC-DLBCL PDX tumors = ABC-DLBCL PDX tumors (MYD88 and CD79B double mutants); assay type: in vivo; conditions: activating mutations in TLR/IL-1R and BCR pathways (MYD88 and CD79B double mutants)
SMILES,tumor growth inhibition (TGI) [1] [%],TGI % (Day 28) [2] [%],efficacy in xenograft tumor model (OCI-LY3),efficacy in xenograft tumor model (OCI-LY10),efficacy in PDX tumors (ABC-DLBCL PDX tumors)
Cc1cc(-c2nc(C(=O)Nc3cc4oc(N5CCOCC5)nc4nc3N3CC[C@@H](O)C3)co2)ccn1 [Compound A],63,66,dose-dependent efficacy,dose-dependent efficacy,efficacious
"CC1(C)CCC(CN2CCN(c3ccc(C(=O)NS(=O)(=O)c4ccc(NCC5CCOCC5)c([N+](=O)[O-])c4)c(Oc4cnc5[nH]ccc5c4)c3)CC2)=C(c2ccc(Cl)cc2)C1 [venetoclax, reference compound]",71,,,,
